Series [1] in a line: metabolite profiling in pooled urine (radioprofiling, LC‐MS). The format is in vivo, human. The following applies: pooled urine 0‐96 hours, mean. As for the experimental part:
(§1) Total radioactivity concentrations of [^14C]‐pamiparib in whole blood, plasma, urine, and feces were determined by liquid scintillation counting (LSC). Radioactivity in each sample was measured for 5 minutes using a Packard Tri‐Carb liquid scintillation counter model 2100TR, 2900TR, or 3100TR (Canberra Packard, Pangbourne, Berks, Australia) with the facilities for computing quench‐corrected disintegrations per minute. Metabolite identification in plasma, urine, and feces was conducted by LC‐MS. Quantitation of the metabolites present in plasma, urine, and feces was based on the profiles of radioactivity. The limit of quantitation for radioactivity in plasma, urine, and feces was set at 1% of each chromatographic analysis (run) and 10 counts per minute (cpm) peak height; therefore, radioactive peaks that were <1% of the total run or <10 cpm peak height were reported as not detected. In addition, pamiparib and standards were reported, regardless of the percentage of run or peak height.
Each aliquot of urine (about 1 mL, weighed) was added directly to liquid scintillant prior to LSC. For metabolite profiling, urine samples collected 0‐4, 4‐8, 8‐12, 12‐24, 24‐48, 48‐72, and 72‐96 hours postdose were pooled by individual patient to generate 0‐ to 96‐hour pooled samples including 0.2% of each sample by weight. The radioactivity in each pooled sample was determined by LSC. The total amount of urine collected was factored into the recovery calculation. […] Pooled urine samples were analyzed by LC‐MS, with eluent fractions collected at 10‐second intervals into 96‐well plates containing solid scintillant. Radioactivity in each well was determined using TopCount analysis, and radiochemical profiles were generated based on radioactivity counts.
(§2) Metabolic profiling was performed on plasma, urine, and feces samples using LC‐MS. Shimadzu/Nexera LC‐30AD pumps and Shimadzu/Prominence DGU‐20A5R degasser were used with Shimadzu/Prominence controller CBM‐20A. The high‐pressure liquid chromatograph (HPLC) was equipped with an autoinjector (Shimadzu/Nexera SIL‐30ACMP) set at 10°C and a fraction collector (Leap Technologies PAL HTC‐xt) set at 15°C. Thermo Fisher Scientific Q Exactive was the mass spectrometer system.

The target in another series is T1, rCYP2D6 (Homo sapiens, UniProt P10635).
T1 construct: purchased Corning (Woburn, New York)
T1 sequence (P10635 whole entry): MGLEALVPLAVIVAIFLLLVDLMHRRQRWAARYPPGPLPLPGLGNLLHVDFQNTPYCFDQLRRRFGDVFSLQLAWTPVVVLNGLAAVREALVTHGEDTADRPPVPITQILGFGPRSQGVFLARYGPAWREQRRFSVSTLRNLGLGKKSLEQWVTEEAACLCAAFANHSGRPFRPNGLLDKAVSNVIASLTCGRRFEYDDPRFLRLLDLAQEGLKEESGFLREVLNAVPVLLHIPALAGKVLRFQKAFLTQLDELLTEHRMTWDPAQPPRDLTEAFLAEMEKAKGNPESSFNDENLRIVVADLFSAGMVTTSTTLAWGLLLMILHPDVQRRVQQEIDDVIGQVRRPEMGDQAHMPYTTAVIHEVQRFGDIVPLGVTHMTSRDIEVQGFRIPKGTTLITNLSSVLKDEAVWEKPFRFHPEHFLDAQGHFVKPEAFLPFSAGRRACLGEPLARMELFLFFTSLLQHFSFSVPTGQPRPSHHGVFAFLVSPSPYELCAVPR
Put plainly: incubation of pamiparib with recombinant CYP2D6. The following applies: 1 μM pamiparib, 50 pmol/mL, 90 minutes. Type of series: in vitro ADME. As for the experimental part:
(§3) Metabolic stability in human liver microsomes (HLMs) and cytochrome P450 (CYP450) phenotyping assays were conducted in 3D BioOptima (Suzhou, China) using validated methodology, [13] to determine the intrinsic clearance and enzymes responsible for metabolism of pamiparib. HLMs for microsome stability was from BD Biosciences (Woburn, New York). For phenotyping, HLMs and recombinant P450 (rCYP) were from Corning (Woburn, New York). Pamiparib (1 μM) was incubated with pooled HLM (0.5 mg/mL), NADPH (1 mM), and MgCl2 (3 mM) terminated at 0, 5, 15, 30, 60, and 90 minutes. The intrinsic clearance was calculated as 0.693/(t1/2 × HLM concentration), where t1/2 is the half‐life of pamiparib determined in HLMs. For phenotyping in HLMs, pamiparib (1 μM) was incubated in the absence or presence of isoform‐selective inhibitors: 0.2 μM α‐naphthoflavone for CYP1A2, 2 μM clopidogrel for CYP2B6, 16 μM montelukast for CYP2C8, 10 μM sulfaphenazole for CYP2C9, 30 μM nootkatone for CYP2C19, 2 μM quinidine for CYP2D6, and 1 μM ketoconazole for CYP3A. The following isoform‐selective probe substrates served as positive controls: 40 μM phenacetin for CYP1A2, 100 μM bupropion for CYP2B6, 2 μM amodiaquine for CYP2C8, 5 μM diclofenac for CYP2C9, 40 μM S‐mephenytoin for CYP2C19, 5 μM dextromethorphan for CYP2D6, and 2 μM midazolam for CYP3A4. […] Pamiparib, M1, and M2 were analyzed by LC‐MS/MS.

The target of a further series is T2, rCYP3A4 (Homo sapiens, UniProt P08684).
T2 construct: purchased Corning (Woburn, New York)
T2 sequence (P08684 whole entry): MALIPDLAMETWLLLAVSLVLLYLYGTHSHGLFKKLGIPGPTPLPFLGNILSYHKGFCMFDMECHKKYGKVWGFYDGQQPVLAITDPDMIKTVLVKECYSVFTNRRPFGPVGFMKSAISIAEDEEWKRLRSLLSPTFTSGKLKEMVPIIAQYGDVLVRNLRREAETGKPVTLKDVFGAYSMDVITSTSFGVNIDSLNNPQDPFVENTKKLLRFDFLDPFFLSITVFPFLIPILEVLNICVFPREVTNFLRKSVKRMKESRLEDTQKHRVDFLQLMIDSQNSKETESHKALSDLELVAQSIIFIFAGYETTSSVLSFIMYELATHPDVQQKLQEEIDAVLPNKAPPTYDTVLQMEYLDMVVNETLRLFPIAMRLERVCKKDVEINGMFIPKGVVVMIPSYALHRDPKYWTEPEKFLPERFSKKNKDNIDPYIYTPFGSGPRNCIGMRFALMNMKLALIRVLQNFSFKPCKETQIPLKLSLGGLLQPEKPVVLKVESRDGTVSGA
Description: incubation of pamiparib with recombinant CYP3A4. Type of series: in vitro ADME. The following applies: 1 μM pamiparib, 50 pmol/mL, 90 minutes. As for the experimental part:
as §3

Series [2] deals with rCYP1A2, rCYP2B6, rCYP2C8, rCYP2C9, rCYP2C19, rCYP2D6, rCYP3A4. Put plainly: incubation of pamiparib with recombinant P450 isoform panel. The format is in vitro ADME. The following applies: 1 μM pamiparib, 50 pmol/mL, 90 minutes. As for the experimental part: as §3
Series [3] in a line: stability of metabolite M2. The format is physicochemical. The following applies: dehydrates in the LC‐MS source or under other conditions.
Series [4] can be described thus: metabolite profiling in plasma (radioprofiling, LC‐MS). Type of series: in vivo, human. The following applies: plasma. As for the experimental part:
as §1
For metabolite profiling in plasma, ≈1.9 to 2.8 g of each plasma sample collected 0.5, 1, 2, 6, 12, and 24 hours postdose was extracted twice with 6 mL of 0.1% formic acid in acetonitrile (ACN). Duplicate aliquots were analyzed by LSC to determine extraction recoveries, which ranged from 77.4% to 98.5%. The combined supernatants were evaporated to dryness under nitrogen and reconstituted in 2:1 reverse osmosis water:methanol (MeOH). Duplicate aliquots were analyzed by LSC to determine reconstitution recoveries, which ranged from 89.3% to 115%. The reconstituted samples were analyzed by LC‐MS, with eluent fractions collected at 10‐second intervals into 96‐well plates containing solid scintillant. Radioactivity in each well was determined using TopCount analysis, and radiochemical profiles were generated based on radioactivity counts.
as §2

Series [5] can be described thus: metabolite profiling in pooled feces (radioprofiling, LC‐MS). The following applies: pooled feces 0‐120 hours, mean. The format is in vivo, human. As for the experimental part:
as §1
Portions of fecal homogenates (about 200‐500 mg) were subjected to combustion analysis prior to LSC. For metabolite profiling, feces samples collected 0‐24, 24‐48, 48‐72, 72‐96, and 96‐120 hours postdose were pooled by individual patient to generate 0‐ to 120‐hour pooled samples including 0.5% of each sample by weight. Feces were pooled per patient (if required) according to the appropriate 24‐hour collection period. The samples were homogenized in deionized water, avoiding excessive dilution (data on file). The radioactivity in each pooled sample was determined by LSC. The total amount of feces collected was factored into the recovery calculation. Approximately 1.6 to 2.7 g of each pooled feces sample was extracted twice with 6 mL of 0.1% formic acid in ACN. […] The combined supernatants were evaporated to dryness under nitrogen and reconstituted in 300 μL of MeOH. […] The reconstituted samples were analyzed by LC‐MS, with eluent fractions collected, and radiochemical profiles were generated based on radioactivity counts. […]

The target of another series is T3, rCYP2C8 (Homo sapiens, UniProt P10632).
T3 construct: purchased Corning (Woburn, New York)
T3 sequence (P10632 1-490): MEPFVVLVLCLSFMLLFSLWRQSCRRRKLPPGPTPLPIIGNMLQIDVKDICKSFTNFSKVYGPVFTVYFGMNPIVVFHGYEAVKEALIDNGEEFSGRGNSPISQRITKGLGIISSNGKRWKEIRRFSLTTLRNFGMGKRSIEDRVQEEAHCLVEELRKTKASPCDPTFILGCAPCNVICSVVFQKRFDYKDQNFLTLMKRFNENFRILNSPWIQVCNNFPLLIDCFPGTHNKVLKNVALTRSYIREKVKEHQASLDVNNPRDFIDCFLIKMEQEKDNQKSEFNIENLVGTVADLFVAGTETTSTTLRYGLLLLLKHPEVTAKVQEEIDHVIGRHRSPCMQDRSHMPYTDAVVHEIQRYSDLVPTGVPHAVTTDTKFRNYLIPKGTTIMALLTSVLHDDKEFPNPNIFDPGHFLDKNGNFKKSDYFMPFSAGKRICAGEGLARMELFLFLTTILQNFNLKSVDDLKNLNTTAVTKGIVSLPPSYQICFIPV
Description: incubation of pamiparib with recombinant CYP2C8. The format is in vitro ADME. The following applies: 1 μM pamiparib, 50 pmol/mL, 90 minutes. As for the experimental part: as §3

SMILES strings stand for the structures. Entries after “also recorded” stand apart in the source; their conditions may differ.

Regarding `C[C@]12CCC[N+]1([O-])CC1=NNC(=O)c3cc(F)cc4[nH]c2c1c34` (stereo partly drawn) [Metabolite M1], the “% of Radioactive Dose, Urine” value in series [1] was 0.53%. For the same molecule, on rCYP2D6, the “metabolite formation after incubation of pamiparib with rCYP2D6” value is listed as “detected; also recorded: generated”. Besides, the “metabolite formation after incubation of pamiparib with rCYP3A4” value on rCYP3A4 is reported as “detected; also recorded: generated”. Moreover, the “metabolite detection across rCYP isoforms” value in series [2] is on record as “not detected with other rCYP isoforms”.
Consider `C[C@]12CCC(O)N1CC1=NNC(=O)c3cc(F)cc4[nH]c2c1c34` (stereo partly drawn) [Metabolite M2], for which the “% of Radioactive Dose, Urine” value in series [1] is listed as “not identified”. Also, on rCYP2D6, the “metabolite formation after incubation of pamiparib with rCYP2D6” value is on record as “higher levels; also recorded: generated”. Besides, the “metabolite formation after incubation of pamiparib with rCYP3A4” value on rCYP3A4 is “higher levels”. In addition, the “stability of the metabolite” value in series [3] is “not stable”. Besides, the figures for the “Percent of Total Radioactivity Concentration (AUC0‐24h)” value in series [4] (patient S103) and in series [4] (patient S104) were 2.00% and 4.38%, respectively. For the same molecule, the “% of Radioactive Dose, Feces” value in series [5] is “not identified”. In series [2], the “metabolite detection across rCYP isoforms” value is reported as “detected in all isoforms except rCYP2C9”. Further, the “metabolite formation after incubation of pamiparib with rCYP2C8” value on rCYP2C8 is reported as “higher levels; also recorded: generated”.
`C[C@]1(CCCO)NCC2=NNC(=O)c3cc(F)cc4[nH]c1c2c34` [Metabolite M10, pamiparib hydrate]: in series [1], the “% of Radioactive Dose, Urine” value was 8.05%. The “% of Radioactive Dose, Feces” value in series [5] worked out at 1.3%.

Values taken from paper PMC8453745, “Human Mass Balance and Metabolite Profiling of [^14C]‐Pamiparib, a Poly (ADP‐Ribose) Polymerase Inhibitor, in Patients With Advanced Cancer” (Clinical Pharmacology in Drug Development, 2021).
